Results as given in the NIST ThermoML archive (doi:10.1016/j.jct.2006.05.008).
Numbers after ± are expanded uncertainties.

Assay: molar heat capacity at constant pressure
Conditions: 101.33 kPa, Small (less than 1 g) adiabatic calorimetry

CCCCn1cc[n+](C)c1.[Br-] [1-butyl-3-methylimidazolium bromide]
Conditions | molar heat capacity at constant pressure [J/K/mol]
210 K, Crystal | 179.9 ± 0.92
210.34 K, Crystal | 180.27 ± 0.92
211.54 K, Glass | 201.34 ± 1
212.44 K, Crystal | 181.75 ± 0.93
213.66 K, Glass | 205.71 ± 1
214.52 K, Crystal | 183.24 ± 0.93
215.75 K, Glass | 211.67 ± 1
216.61 K, Crystal | 184.62 ± 0.94
217.78 K, Glass | 223.22 ± 1.1
218.7 K, Crystal | 186.06 ± 0.94
219.71 K, Glass | 249.71 ± 1.2
220 K, Crystal | 186.6 ± 0.92
220.79 K, Crystal | 187.32 ± 0.95
222.88 K, Crystal | 188.66 ± 0.96
224.97 K, Crystal | 190.05 ± 0.96
225.62 K, Liquid | 289.04 ± 1.4
227.06 K, Crystal | 191.53 ± 0.97
227.7 K, Liquid | 289.5 ± 1.4
229.15 K, Crystal | 192.85 ± 0.97
229.79 K, Liquid | 290.01 ± 1.4
230 K, Crystal | 193.1 ± 1
231.24 K, Crystal | 194.13 ± 0.98
231.89 K, Liquid | 290.69 ± 1.4
233.34 K, Crystal | 195.6 ± 0.98
233.98 K, Liquid | 291.24 ± 1.4
235.43 K, Crystal | 196.86 ± 0.99
236.07 K, Liquid | 291.65 ± 1.4
237.53 K, Crystal | 198 ± 0.99
238.17 K, Liquid | 292.05 ± 1.4
239.63 K, Crystal | 199.44 ± 1
240 K, Crystal | 199.5 ± 1
240.26 K, Liquid | 292.64 ± 1.4
241.72 K, Crystal | 200.93 ± 1
242.35 K, Liquid | 293.21 ± 1.4
243.82 K, Crystal | 202.36 ± 1
244.44 K, Liquid | 293.89 ± 1.4
245.93 K, Crystal | 203.67 ± 1
246.54 K, Liquid | 294.81 ± 1.4
248.03 K, Crystal | 205.09 ± 1
248.64 K, Liquid | 295.35 ± 1.4
250 K, Crystal | 206.2 ± 1
250.12 K, Crystal | 206.58 ± 1
250.73 K, Liquid | 296.1 ± 1.4
252.22 K, Crystal | 208.01 ± 1
252.83 K, Liquid | 296.76 ± 1.4
254.32 K, Crystal | 209.53 ± 1
256.43 K, Crystal | 211.04 ± 1
258.53 K, Crystal | 212.45 ± 1
260 K, Crystal | 213.2 ± 1.1
260.63 K, Crystal | 213.97 ± 1.1
262.74 K, Crystal | 215.49 ± 1.1
264.84 K, Crystal | 217.16 ± 1.1
266.93 K, Crystal | 218.74 ± 1.1
269.03 K, Crystal | 220.2 ± 1.1
270 K, Crystal | 220.8 ± 1.1
271.12 K, Crystal | 222.15 ± 1.1
273.22 K, Crystal | 223.99 ± 1.1
275.33 K, Crystal | 225.35 ± 1.1
277.43 K, Crystal | 227.05 ± 1.1
279.55 K, Crystal | 228.43 ± 1.1
280 K, Crystal | 228.4 ± 1.1
281.65 K, Crystal | 230.01 ± 1.1
283.76 K, Crystal | 231.57 ± 1.1
285.86 K, Crystal | 232.75 ± 1.1
287.97 K, Crystal | 234.48 ± 1.1
290 K, Crystal | 235.8 ± 1.2
290.08 K, Crystal | 236.13 ± 1.1
292.19 K, Crystal | 237.64 ± 1.2
294.31 K, Crystal | 239.37 ± 1.2
296.42 K, Crystal | 241.14 ± 1.2
298.15 K, Crystal | 241.8 ± 1.2
298.54 K, Crystal | 243.38 ± 1.2
300 K, Crystal | 243.1 ± 1.2
300.66 K, Crystal | 245.13 ± 1.2
302.78 K, Crystal | 247.98 ± 1.2
304.91 K, Crystal | 249.78 ± 1.2
308.84 K, Crystal | 254.23 ± 1.2
310 K, Crystal | 250.4 ± 1.2
312.32 K, Crystal | 258.72 ± 1.2
314.44 K, Crystal | 261.85 ± 1.2
320 K, Crystal | 257.8 ± 1.2
330 K, Crystal | 265.1 ± 1.2
340 K, Crystal | 272.5 ± 1.3
350 K, Crystal | 279.8 ± 1.3
351.35 K, Crystal | 280.8 ± 1.3
351.35 K, Liquid | 332.6 ± 1.5
355.98 K, Liquid | 334.82 ± 1.5
359.86 K, Liquid | 336.11 ± 1.5
360 K, Liquid | 336.3 ± 1.6
362.1 K, Liquid | 338.41 ± 1.6
364.36 K, Liquid | 339.33 ± 1.6
366.64 K, Liquid | 339.84 ± 1.6
370 K, Liquid | 340.9 ± 1.6
